# Test results taken from PMC5605198, “MELK is not necessary for the proliferation of basal-like breast cancer cells” (eLife, 2017).
# Like-named read-outs stand apart in the source and are kept apart here.
# Columns and labels:
# [1] = test system: MDA-MB-468; assay: Cell proliferation assay (CellTiter-Glo); settings: Homo sapiens
# [2] = molecular target: PINK (Tribolium castaneum, UniProt D6WMX4); assay: ICKP radiometric kinase assay; settings: read-out: % AR (% kinase activity remaining)
# [3] = molecular target: NEK6 (Homo sapiens, UniProt Q9HC98); assay: ICKP radiometric kinase assay; format: biochemical; settings: read-out: % AR (% kinase activity remaining)
# [4] = molecular target: EPH-A4 (Homo sapiens, UniProt P54764); assay: ICKP radiometric kinase assay; format: biochemical; settings: read-out: % AR (% kinase activity remaining)
# [5] = molecular target: MNK1 (Homo sapiens, UniProt Q9BUB5); assay: ICKP radiometric kinase assay; format: biochemical; settings: read-out: % AR (% kinase activity remaining)
# [6] = molecular target: SIK2 (Homo sapiens, UniProt Q9H0K1); assay: ICKP radiometric kinase assay; format: biochemical; settings: read-out: % AR (% kinase activity remaining)
# [7] = molecular target: IR (Homo sapiens, UniProt P06213); assay: ICKP radiometric kinase assay; format: biochemical; settings: read-out: % AR (% kinase activity remaining)
# [8] = molecular target: MAP4K3 (Homo sapiens, UniProt Q8IVH8); assay: ICKP radiometric kinase assay; format: biochemical; settings: read-out: % AR (% kinase activity remaining)
# [9] = molecular target: PKC gamma (Homo sapiens, UniProt P05129); assay: ICKP radiometric kinase assay; format: biochemical; settings: read-out: % AR (% kinase activity remaining)
# [10] = molecular target: CHK1 (Homo sapiens, UniProt O14757); assay: ICKP radiometric kinase assay; format: biochemical; settings: read-out: % AR (% kinase activity remaining)
# [11] = molecular target: CDK2-Cyclin A (Homo sapiens, UniProt P24941); assay: ICKP radiometric kinase assay; format: biochemical; settings: read-out: % AR (% kinase activity remaining)
# [12] = molecular target: IRAK4 (Homo sapiens, UniProt Q9NWZ3); assay: ICKP radiometric kinase assay; format: biochemical; settings: read-out: % AR (% kinase activity remaining)
# [13] = molecular target: MKK6 (Homo sapiens, UniProt P52564); assay: ICKP radiometric kinase assay; format: biochemical; settings: read-out: % AR (% kinase activity remaining)
# [14] = molecular target: TGFBR1 (Homo sapiens, UniProt P36897); assay: ICKP radiometric kinase assay; format: biochemical; settings: read-out: % AR (% kinase activity remaining)
# [15] = molecular target: CK2 (Homo sapiens, UniProt P68400); assay: ICKP radiometric kinase assay; format: biochemical; settings: read-out: % AR (% kinase activity remaining)
# [16] = molecular target: TTK (Homo sapiens, UniProt P33981); assay: ICKP radiometric kinase assay; format: biochemical; settings: read-out: % AR (% kinase activity remaining)
# [17] = molecular target: RSK2 (Homo sapiens, UniProt P51812); assay: ICKP radiometric kinase assay; format: biochemical; settings: read-out: % AR (% kinase activity remaining)
# [18] = molecular target: MSK1 (Homo sapiens, UniProt O75582); assay: ICKP radiometric kinase assay; format: biochemical; settings: read-out: % AR (% kinase activity remaining)
# [19] = molecular target: MKK2 (Homo sapiens, UniProt P36507); assay: ICKP radiometric kinase assay; format: biochemical; settings: read-out: % AR (% kinase activity remaining)
# [20] = molecular target: HIPK1 (Homo sapiens, UniProt Q86Z02); assay: ICKP radiometric kinase assay; format: biochemical; settings: read-out: % AR (% kinase activity remaining)
# [21] = molecular target: ULK2 (Homo sapiens, UniProt Q8IYT8); assay: ICKP radiometric kinase assay; format: biochemical; settings: read-out: % AR (% kinase activity remaining)
# [22] = molecular target: p38 gamma (Homo sapiens, UniProt P53778); assay: ICKP radiometric kinase assay; format: biochemical; settings: read-out: % AR (% kinase activity remaining)
# [23] = molecular target: IRAK1 (Homo sapiens, UniProt P51617); assay: ICKP radiometric kinase assay; format: biochemical; settings: read-out: % AR (% kinase activity remaining)
# [24] = molecular target: CHK2 (Homo sapiens, UniProt O96017); assay: ICKP radiometric kinase assay; format: biochemical; settings: read-out: % AR (% kinase activity remaining)
# [25] = molecular target: HIPK2 (Homo sapiens, UniProt Q9H2X6); assay: ICKP radiometric kinase assay; format: biochemical; settings: read-out: % AR (% kinase activity remaining)
# [26] = molecular target: Lck (Homo sapiens, UniProt P06239); assay: ICKP radiometric kinase assay; format: biochemical; settings: read-out: % AR (% kinase activity remaining)
# [27] = molecular target: EPH-B2 (Homo sapiens, UniProt P29323); assay: ICKP radiometric kinase assay; format: biochemical; settings: read-out: % AR (% kinase activity remaining)
# [28] = molecular target: ERK2 (Homo sapiens, UniProt P28482); assay: ICKP radiometric kinase assay; format: biochemical; settings: read-out: % AR (% kinase activity remaining)
# [29] = molecular target: MNK2 (Homo sapiens, UniProt Q9HBH9); assay: ICKP radiometric kinase assay; format: biochemical; settings: read-out: % AR (% kinase activity remaining)
# [30] = molecular target: MAPKAP-K3 (Homo sapiens, UniProt Q16644); assay: ICKP radiometric kinase assay; format: biochemical; settings: read-out: % AR (% kinase activity remaining)
# [31] = test system: MDA-MB-468 (second source); assay: Cell proliferation assay (CellTiter-Glo); settings: Homo sapiens, MDA-MB-468, 168 h, read-out: 7-day antiproliferative IC50
# [32] = molecular target: DYRK2 (Homo sapiens, UniProt Q92630); assay: ICKP radiometric kinase assay; format: biochemical; settings: read-out: % AR (% kinase activity remaining)
# [33] = molecular target: EPH-B1 (Homo sapiens, UniProt P54762); assay: ICKP radiometric kinase assay; format: biochemical; settings: read-out: % AR (% kinase activity remaining)
# [34] = molecular target: GSK3 beta (Homo sapiens, UniProt P49841); assay: ICKP radiometric kinase assay; format: biochemical; settings: read-out: % AR (% kinase activity remaining)
# [35] = molecular target: TESK1 (Homo sapiens, UniProt Q15569); assay: ICKP radiometric kinase assay; format: biochemical; settings: read-out: % AR (% kinase activity remaining)
# [36] = molecular target: MAP4K5 (Homo sapiens, UniProt Q9Y4K4); assay: ICKP radiometric kinase assay; format: biochemical; settings: read-out: % AR (% kinase activity remaining)
# [37] = molecular target: SmMLCK (Homo sapiens, UniProt Q15746); assay: ICKP radiometric kinase assay; format: biochemical; settings: for remaining activity at 1 µM: read-out: % AR (% kinase activity remaining)
# [38] = molecular target: p38 alpha (Homo sapiens, UniProt Q16539); assay: ICKP radiometric kinase assay; format: biochemical; settings: read-out: % AR (% kinase activity remaining)
# [39] = test system: AMPK (hum); assay: ICKP radiometric kinase assay; format: biochemical, human; settings: 1 μM
# [40] = molecular target: SGK1 (Homo sapiens, UniProt O00141); assay: ICKP radiometric kinase assay; format: biochemical; settings: read-out: % AR (% kinase activity remaining)
# [41] = molecular target: DYRK1A (Homo sapiens, UniProt Q13627); assay: ICKP radiometric kinase assay; format: biochemical; settings: read-out: % AR (% kinase activity remaining)
# [42] = molecular target: OSR1 (Homo sapiens, UniProt O95747); assay: ICKP radiometric kinase assay; format: biochemical; settings: read-out: % AR (% kinase activity remaining)
# [43] = MDA-MB-468, 72 h, read-out: 3-day antiproliferative IC50
# [44] = MDA-MB-468, 168 h, read-out: 7-day antiproliferative IC50
# Chain of IRAK1 (P51617 whole entry): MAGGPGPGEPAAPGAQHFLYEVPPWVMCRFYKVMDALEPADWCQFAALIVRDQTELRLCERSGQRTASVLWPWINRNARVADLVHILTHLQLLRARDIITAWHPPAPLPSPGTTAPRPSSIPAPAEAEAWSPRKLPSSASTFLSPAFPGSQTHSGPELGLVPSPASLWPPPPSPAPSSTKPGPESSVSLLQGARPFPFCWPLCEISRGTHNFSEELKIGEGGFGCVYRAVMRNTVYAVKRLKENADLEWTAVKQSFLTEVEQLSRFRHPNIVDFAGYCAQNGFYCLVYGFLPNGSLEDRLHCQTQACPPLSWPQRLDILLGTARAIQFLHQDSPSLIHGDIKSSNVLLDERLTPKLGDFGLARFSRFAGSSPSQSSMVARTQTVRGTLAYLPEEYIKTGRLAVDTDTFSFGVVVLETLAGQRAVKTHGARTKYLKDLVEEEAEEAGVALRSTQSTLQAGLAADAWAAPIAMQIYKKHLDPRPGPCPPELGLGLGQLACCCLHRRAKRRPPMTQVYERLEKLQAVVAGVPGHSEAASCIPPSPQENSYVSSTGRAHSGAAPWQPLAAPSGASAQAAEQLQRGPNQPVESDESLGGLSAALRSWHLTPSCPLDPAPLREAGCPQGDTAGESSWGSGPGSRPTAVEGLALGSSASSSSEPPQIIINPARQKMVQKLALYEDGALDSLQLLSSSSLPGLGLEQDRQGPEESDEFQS
# Chain of PINK (D6WMX4 6-570): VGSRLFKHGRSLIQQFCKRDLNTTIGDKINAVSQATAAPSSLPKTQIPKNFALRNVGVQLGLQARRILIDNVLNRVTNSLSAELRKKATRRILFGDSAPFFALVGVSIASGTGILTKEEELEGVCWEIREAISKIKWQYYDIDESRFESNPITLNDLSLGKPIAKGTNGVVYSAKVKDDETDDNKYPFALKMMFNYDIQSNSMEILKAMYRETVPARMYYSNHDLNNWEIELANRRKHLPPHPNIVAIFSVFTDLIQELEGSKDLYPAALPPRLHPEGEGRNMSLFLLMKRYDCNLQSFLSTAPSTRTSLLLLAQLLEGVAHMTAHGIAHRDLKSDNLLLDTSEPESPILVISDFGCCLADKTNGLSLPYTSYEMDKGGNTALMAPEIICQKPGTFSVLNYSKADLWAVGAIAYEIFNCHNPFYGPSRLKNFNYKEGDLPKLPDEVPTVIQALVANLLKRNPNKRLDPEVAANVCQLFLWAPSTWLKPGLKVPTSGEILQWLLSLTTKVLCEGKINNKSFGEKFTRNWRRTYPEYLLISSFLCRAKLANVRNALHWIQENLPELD
# Chain of TGFBR1 (P36897 34-503): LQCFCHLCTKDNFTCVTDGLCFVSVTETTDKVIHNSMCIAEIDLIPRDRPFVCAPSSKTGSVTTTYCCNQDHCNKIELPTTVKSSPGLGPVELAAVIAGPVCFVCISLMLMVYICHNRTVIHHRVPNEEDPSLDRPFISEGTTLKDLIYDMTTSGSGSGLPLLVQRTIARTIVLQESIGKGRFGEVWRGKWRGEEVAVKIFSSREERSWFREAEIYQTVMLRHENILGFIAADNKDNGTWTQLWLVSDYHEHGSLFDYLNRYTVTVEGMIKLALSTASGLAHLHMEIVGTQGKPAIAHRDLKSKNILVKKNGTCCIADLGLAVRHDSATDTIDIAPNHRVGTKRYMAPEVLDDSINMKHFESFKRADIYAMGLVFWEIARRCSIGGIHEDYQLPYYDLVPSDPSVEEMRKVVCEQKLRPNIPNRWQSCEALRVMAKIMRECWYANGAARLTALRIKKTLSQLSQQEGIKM
# Chain of MAP4K5 (Q9Y4K4 whole entry): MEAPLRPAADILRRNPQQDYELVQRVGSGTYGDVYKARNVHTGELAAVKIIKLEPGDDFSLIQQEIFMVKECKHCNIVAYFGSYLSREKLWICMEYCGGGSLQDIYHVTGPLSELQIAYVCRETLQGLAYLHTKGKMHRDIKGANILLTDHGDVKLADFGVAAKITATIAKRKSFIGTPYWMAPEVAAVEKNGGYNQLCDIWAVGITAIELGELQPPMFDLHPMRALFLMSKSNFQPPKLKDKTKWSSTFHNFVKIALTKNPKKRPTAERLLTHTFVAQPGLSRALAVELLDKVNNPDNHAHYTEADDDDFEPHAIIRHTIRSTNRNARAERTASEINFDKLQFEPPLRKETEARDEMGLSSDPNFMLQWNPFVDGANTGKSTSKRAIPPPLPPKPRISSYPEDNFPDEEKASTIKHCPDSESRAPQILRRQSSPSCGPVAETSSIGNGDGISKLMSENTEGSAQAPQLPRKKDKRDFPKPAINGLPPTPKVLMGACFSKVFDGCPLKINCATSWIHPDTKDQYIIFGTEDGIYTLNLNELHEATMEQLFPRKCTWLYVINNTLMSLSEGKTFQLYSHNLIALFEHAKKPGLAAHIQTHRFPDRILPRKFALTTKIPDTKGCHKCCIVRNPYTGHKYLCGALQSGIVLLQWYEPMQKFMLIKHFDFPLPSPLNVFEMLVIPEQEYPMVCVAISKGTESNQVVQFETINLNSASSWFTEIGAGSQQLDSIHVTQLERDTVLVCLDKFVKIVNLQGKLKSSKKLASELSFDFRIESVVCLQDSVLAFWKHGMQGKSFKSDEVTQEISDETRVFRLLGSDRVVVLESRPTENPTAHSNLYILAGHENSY
# Chain of MNK2 (Q9HBH9 whole entry): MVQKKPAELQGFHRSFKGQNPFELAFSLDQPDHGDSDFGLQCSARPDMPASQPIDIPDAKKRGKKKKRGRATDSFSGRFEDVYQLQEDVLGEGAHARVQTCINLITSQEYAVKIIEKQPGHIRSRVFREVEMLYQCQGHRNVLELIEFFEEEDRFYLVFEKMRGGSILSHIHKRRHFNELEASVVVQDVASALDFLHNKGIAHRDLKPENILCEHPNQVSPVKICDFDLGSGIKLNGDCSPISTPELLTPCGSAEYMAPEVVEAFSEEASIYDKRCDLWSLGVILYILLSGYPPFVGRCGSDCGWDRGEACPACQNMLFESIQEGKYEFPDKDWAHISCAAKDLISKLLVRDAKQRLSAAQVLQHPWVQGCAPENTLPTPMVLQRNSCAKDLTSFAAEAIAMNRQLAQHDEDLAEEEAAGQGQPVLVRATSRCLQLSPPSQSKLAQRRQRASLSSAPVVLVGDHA
# Chain of TESK1 (Q15569 whole entry): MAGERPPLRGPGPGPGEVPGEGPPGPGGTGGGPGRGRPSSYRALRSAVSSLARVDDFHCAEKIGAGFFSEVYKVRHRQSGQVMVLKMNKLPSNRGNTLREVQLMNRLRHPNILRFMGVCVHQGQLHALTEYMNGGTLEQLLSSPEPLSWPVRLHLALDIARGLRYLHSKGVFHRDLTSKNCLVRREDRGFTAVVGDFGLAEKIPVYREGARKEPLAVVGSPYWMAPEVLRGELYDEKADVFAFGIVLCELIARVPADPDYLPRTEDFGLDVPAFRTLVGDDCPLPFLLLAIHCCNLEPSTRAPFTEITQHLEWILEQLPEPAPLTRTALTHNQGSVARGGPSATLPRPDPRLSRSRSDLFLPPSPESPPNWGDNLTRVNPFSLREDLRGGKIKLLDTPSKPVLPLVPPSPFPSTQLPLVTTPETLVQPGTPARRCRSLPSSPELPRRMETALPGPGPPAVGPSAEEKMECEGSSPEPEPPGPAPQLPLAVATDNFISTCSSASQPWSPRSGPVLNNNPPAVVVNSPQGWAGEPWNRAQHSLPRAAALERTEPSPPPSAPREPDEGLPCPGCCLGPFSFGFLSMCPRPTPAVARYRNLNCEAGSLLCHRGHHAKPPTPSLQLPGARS
# Chain of ERK2 (P28482 whole entry): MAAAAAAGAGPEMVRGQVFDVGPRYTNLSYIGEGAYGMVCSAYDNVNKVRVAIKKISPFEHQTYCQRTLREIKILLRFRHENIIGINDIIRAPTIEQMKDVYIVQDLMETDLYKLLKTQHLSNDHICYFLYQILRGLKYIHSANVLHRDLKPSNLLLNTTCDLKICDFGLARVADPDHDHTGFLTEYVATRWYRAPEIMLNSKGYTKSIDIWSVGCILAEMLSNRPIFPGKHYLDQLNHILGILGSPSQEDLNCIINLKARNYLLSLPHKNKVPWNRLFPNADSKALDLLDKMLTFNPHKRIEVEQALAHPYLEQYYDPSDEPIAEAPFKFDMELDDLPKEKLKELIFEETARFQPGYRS
smiles,measurement,setting,value
"CN(C)C[C@H]1CC[C@H](N2C(=O)NCc3cnc4ccc(-c5cc(Cl)c(O)c(Cl)c5)cc4c32)CC1 [HTH-01-091, 9-(3,5-dichloro-4-hydroxyphenyl)-1-(trans-4-((dimethylamino)methyl)cyclohexyl)-3,4-dihydropyrimido[5,4 c]quinolin-2(1H)-one]",IC50,[1]; [43],4000 nM
same,IC50,[1]; [44],2710 nM
same,remaining activity at 1 µM,[2],93%
same,remaining activity at 1 µM,[3],95%
same,remaining activity at 1 µM,[4],63%
same,remaining activity at 1 µM,[5],109%
same,remaining activity at 1 µM,[6],79%
same,remaining activity at 1 µM,[7],100%
same,remaining activity at 1 µM,[8],55%
same,remaining activity at 1 µM,[9],71%
same,remaining activity at 1 µM,[10],86%
same,remaining activity at 1 µM,[11],67%
same,remaining activity at 1 µM,[12],85%
same,remaining activity at 1 µM,[13],99%
same,remaining activity at 1 µM,[14],102%
same,remaining activity at 1 µM,[15],23%
same,remaining activity at 1 µM,[16],53%
same,remaining activity at 1 µM,[17],62%
same,remaining activity at 1 µM,[18],65%
same,remaining activity at 1 µM,[19],75%
same,remaining activity at 1 µM,[20],24%
same,remaining activity at 1 µM,[21],105%
same,remaining activity at 1 µM,[22],86%
same,remaining activity at 1 µM,[23],86%
same,remaining activity at 1 µM,[24],34%
same,remaining activity at 1 µM,[25],13%
same,remaining activity at 1 µM,[26],35%
same,remaining activity at 1 µM,[27],70%
same,remaining activity at 1 µM,[28],93%
same,remaining activity at 1 µM,[29],103%
same,remaining activity at 1 µM,[30],89%
same,IC50,[31],10700 nM
same,remaining activity at 1 µM,[32],18%
same,remaining activity at 1 µM,[33],122%
same,remaining activity at 1 µM,[34],86%
same,remaining activity at 1 µM,[35],95%
same,remaining activity at 1 µM,[36],32%
same,IC50,"[37]; radioactive filter-binding assay provided by the ICKP, read-out: Enzymatic IC50 SmMLCK",109 nM
same,remaining activity at 1 µM,[37],8%
same,remaining activity at 1 µM,[38],84%
same,% AR (% kinase activity remaining),[39],34%
same,remaining activity at 1 µM,[40],72%
same,remaining activity at 1 µM,[41],23%
same,remaining activity at 1 µM,[42],93%
CC(=O)c1cnc2ccc(-c3cc(Cl)c(O)c(Cl)c3)nc2c1N[C@H]1CC[C@H](CN(C)C)CC1 [OTSSP167],IC50,[1]; [43],14 nM
same,IC50,[1]; [44],12 nM
same,remaining activity at 1 µM,[2],89%
same,remaining activity at 1 µM,[3],92%
same,remaining activity at 1 µM,[4],1%
same,remaining activity at 1 µM,[5],28%
same,remaining activity at 1 µM,[6],2%
same,remaining activity at 1 µM,[7],2%
same,remaining activity at 1 µM,[8],1%
same,remaining activity at 1 µM,[9],1%
same,remaining activity at 1 µM,[10],11%
same,remaining activity at 1 µM,[11],2%
same,remaining activity at 1 µM,[12],7%
same,remaining activity at 1 µM,[13],80%
same,remaining activity at 1 µM,[14],16%
same,remaining activity at 1 µM,[15],1%
same,remaining activity at 1 µM,[16],3%
same,remaining activity at 1 µM,[17],1%
same,remaining activity at 1 µM,[18],5%
same,remaining activity at 1 µM,[19],10%
same,remaining activity at 1 µM,[20],0%
same,remaining activity at 1 µM,[21],4%
same,remaining activity at 1 µM,[22],12%
same,remaining activity at 1 µM,[23],3%
same,remaining activity at 1 µM,[24],1%
same,remaining activity at 1 µM,[25],2%
same,remaining activity at 1 µM,[26],0%
same,remaining activity at 1 µM,[27],1%
same,remaining activity at 1 µM,[28],90%
same,remaining activity at 1 µM,[29],13%
same,remaining activity at 1 µM,[30],94%
same,IC50,[31],33 nM
same,remaining activity at 1 µM,[32],1%
same,remaining activity at 1 µM,[33],11%
same,remaining activity at 1 µM,[34],0%
same,remaining activity at 1 µM,[35],51%
same,remaining activity at 1 µM,[36],3%
same,remaining activity at 1 µM,[37],6%
same,remaining activity at 1 µM,[38],10%
same,% AR (% kinase activity remaining),[39],1%
same,remaining activity at 1 µM,[40],12%
same,remaining activity at 1 µM,[41],1%
same,remaining activity at 1 µM,[42],45%
